In one series the test system is Interleukin-1β (IL-1β) Production in HL-60 cells. Briefly: Inhibitory activity against interleukin-1β production (Test 1). The class given is cell-based. The following applies: Homo sapiens, 72 h, lipopolysaccharide 10 μg/ml, culturing for 3 days, compared with control without test sample. On the procedure:
(Inhibitory activity against interleukin-1β production)
HL-60 cells were cultured for 4 days until confluence on RPMI 1640 medium with 10% fetal bovine serum (FBS) added thereto. The medium was centrifuged. The supernatant was discarded, and the cells were then suspended at 1×10^6 cells/me on RPMI 1640 medium with 3% FBS, and lipopolysaccharide was added to give a final concentration of 10 μg/ml. The culture was inoculated at 1 ml/well to a 24-well plate. A test compound was added at 1 μl/well, followed by culturing for 3 days. Three days later, the amount of interleukin-1β in each […] was determined by a comparison in yield with a control to which no test sample was added.
For `COc1ccc(-c2cc(=O)n(CCCl)nc2-c2ccc(OC)cc2)cc1` [Comp. Comp'd 1, reference compound], the IC50 (in general, the concentration at which inhibition is half-maximal) stood at 29 µM.

Compound `COc1ccc(-c2cc(=O)n(CCO)nc2-c2ccc(OC)cc2)cc1` [Comp. Comp'd 2, reference compound] returned an IC50 of 46 µM.

In turn, `COc1ccc(-c2cc(=O)[nH]nc2-c2ccc(OC)cc2)cc1` [Comp. Comp'd 4, reference compound] displayed an IC50 of 31.6 µM.

`CNC(=O)c1cc(-c2ccc(OC)cc2)nn(CC(C)C)c1=O` [Example 43, 2-Isobutyl-6-(4-methoxyphenyl)-4-methylcarbamoyl-2H-pyridazin-3-one] had an IC50 of 0.357 µM.

The compound `CNC(=O)c1cc(-c2ccc(OC)cc2)nn(CC2CC2)c1=O` [Example 61, 2-Cyclopropylmethyl-6-(4-methoxyphenyl)-4-methylcarbamoyl-2H-pyridazin-3-one] gave an IC50 of 0.038 µM.

As to `CNC(=O)c1cc(-c2ccc(OC)c(F)c2)nn(CC2CC2)c1=O` [Example 63, 2-Cyclopropylmethyl-6-(3-fluoro-4-methoxyphenyl)-4-methylcarbamoyl-2H-pyridazin-3-one], 0.31 µM corresponded to half-maximal inhibition (IC50).

Take `CCNC(=O)c1cc(-c2ccc(OC)cc2)nn(CC2CC2)c1=O` [Example 66, 2-Cyclopropylmethyl-4-ethylcarbamoyl-6-(4-methoxyphenyl)-2H-pyridazin-3-one]: the IC50 was 0.11 µM.

In turn, `CCOC(=O)Nc1cc(-c2ccc(OC)cc2)nn(CC=Cc2ccc(Cl)cc2)c1=O` [Example 87, 2-(4-Chlorocinnamyl)-4-ethoxycarbonylamino-6-(4-methoxyphenyl)-2H-pyridazin-3-one] had an IC50 of 0.05 µM.

`COc1ccc(-c2cc(N)c(=O)n(CC=Cc3ccc(Cl)cc3)n2)cc1` [Example 111, 4-amino-2-(4-chlorocinnamyl)-6-(4-methoxyphenyl)-2H-pyridazin-3-one]: the midpoint of inhibition, the IC50, lay at 0.53 µM.

Tested on in the next series: not given
Assay: not given
Settings: not given
As for `CNC(=O)c1cc(-c2ccc(OC)cc2)nn(CC(C)C)c1=O` [Example 43, 2-Isobutyl-6-(4-methoxyphenyl)-4-methylcarbamoyl-2H-pyridazin-3-one], the melting point (commonly the temperature of the solid-liquid transition) fell in the range of 124.9 to 125.2 °C.

Take `CNC(=O)c1cc(-c2ccc(OC)cc2)nn(CC2CC2)c1=O` [Example 61, 2-Cyclopropylmethyl-6-(4-methoxyphenyl)-4-methylcarbamoyl-2H-pyridazin-3-one]: the melting point is 136.6 to 137.5 °C.

As for `CCNC(=O)c1cc(-c2ccc(OC)cc2)nn(CC2CC2)c1=O` [Example 66, 2-Cyclopropylmethyl-4-ethylcarbamoyl-6-(4-methoxyphenyl)-2H-pyridazin-3-one], the melting point fell in the range of 136.3 to 136.9 °C.

In turn, `COc1ccc(-c2cc(C(=O)NCc3ccccc3)c(=O)n(C)n2)cc1` [Example 77, 4-Benzylcarbamoyl-6-(4-methoxyphenyl)-2-methyl-2H-pyridazin-3-one] returned a melting point of 144.8 to 145.8 °C.

In turn, `COc1ccc(-c2cc(C(=O)NCc3ccccn3)c(=O)n(C)n2)cc1` [Example 78, 6-(4-Methoxyphenyl)-2-methyl-4-(2-pyridylmethyl)carbamoyl-2H-pyridazin-3-one] showed a melting point of 122.4 to 122.9 °C.

On to `CNC(=O)c1cc(-c2ccc(OC)cc2)nn(Cc2ccc(NC(=O)c3cccnc3)cc2)c1=O` [Example 81, 6-(4-Methoxyphenyl)-4-methylcarbamoyl-2-[4-(3-pyridylcarbonylamino)benzyl]-2H-pyridazin-3-one], for which the melting point was 226.7 to 227.6 °C (dec.).

`CNC(=O)c1cc(-c2ccc(OC)cc2)nn(Cc2ccc(Cl)cc2Cl)c1=O` [Example 82, 2-(2,4-Dichlorobenzyl)-6-(4-methoxy-phenyl)-4-methylcarbamoyl-2H-pyridazin-3-one] displayed a melting point of 154.2 to 156.2 °C.

For `CNC(=O)c1cc(-c2ccc(OC)cc2)nn(CC=Cc2ccc(Cl)cc2)c1=O` [Example 85, 2-(4-Chlorocinnamyl)-6-(4-methoxyphenyl)-4-methylcarbamoyl-2H-pyridazin-3-one], the melting point is 184.2 to 185.4 °C.

In the case of `COc1ccc(-c2cc(C(=O)O)c(=O)n(CC=Cc3ccc(Cl)cc3)n2)cc1` [Example 86, 4-Carboxy-2-(4-chlorocinnamyl)-6-(4-methoxyphenyl)-2H-pyridazin-3-one], the melting point was 222.6 to 224 °C (dec.).

In the case of `CCOC(=O)Nc1cc(-c2ccc(OC)cc2)nn(CC=Cc2ccc(Cl)cc2)c1=O` [Example 87, 2-(4-Chlorocinnamyl)-4-ethoxycarbonylamino-6-(4-methoxyphenyl)-2H-pyridazin-3-one], the melting point is 171.2 to 172.1 °C.

Compound `COc1ccc(-c2cc(NC(=O)OC(C)C)c(=O)n(CC=Cc3ccc(Cl)cc3)n2)cc1` [Example 88, 2-(4-chlorocinnamyl)-6-(4-methoxyphenyl)-4-isopropoxycarbonylamino-2H-pyridazin-3-one] registered a melting point of 123.9 to 127.4 °C.

Take `CCCCOC(=O)Nc1cc(-c2ccc(OC)cc2)nn(CC=Cc2ccc(Cl)cc2)c1=O` [Example 89, 4-n-butoxycarbonylamino-2-(4-chlorocinnamyl)-6-(4-methoxyphenyl)-2H-pyridazin-3-one]: the melting point lay in the range of 150.2 to 150.9 °C.

`COc1ccc(-c2cc(NC(=O)OCc3ccccc3)c(=O)n(CC=Cc3ccc(Cl)cc3)n2)cc1` [Example 90, 4-benzyloxycarbonylamino-2-(4-chlorocinnamyl)-6-(4-methoxyphenyl)-2H-pyridazin-3-one] had a melting point of 190.5 to 191.7 °C.

As to `COc1ccc(-c2cc(NC(=O)OCc3ccc(SC)cc3)c(=O)n(CC=Cc3ccc(Cl)cc3)n2)cc1` [Example 91, 2-(4-chlorocinnamyl)-6-(4-methoxyphenyl)-4-[4-(methylthio)benzyloxycarbonylamino]-2H-pyridazin-3-one], the melting point lay in the range of 187.6 to 188.7 °C.

Take `COc1ccc(-c2cc(C(=O)O)c(=O)n(CC=C(C)C)n2)cc1` [Example 92, 4-carboxy-6-(4-methoxyphenyl)-2-(3-methyl-2-butenyl)-2H-pyridazin-3-one]: the melting point was 153.5 to 156.6 °C.

As to `CCOC(=O)Nc1cc(-c2ccc(OC)cc2)nn(CC=C(C)C)c1=O` [Example 93, 4-ethoxycarbonylamino-6-(4-methoxy-phenyl)-2-(3-methyl-2-butenyl)-2H-pyridazin-3-one], the melting point fell in the range of 130.2 to 131.2 °C.

`CCOC(=O)Nc1cc(-c2ccc(OC)cc2)nn(CC2CC2)c1=O` [Example 95, 2-cyclopropylmethyl-4-ethoxycarbonylamino-6-(4-methoxyphenyl)-2H-pyridazin-3-one] displayed a melting point of 119.1 to 119.6 °C.

`CCOC(=O)Nc1cc(-c2ccc(OC)cc2)nn(Cc2ccccc2)c1=O` [Example 97, 2-benzyl-4-ethoxycarbonylamino-6-(4-methoxyphenyl)-2H-pyridazin-3-one]: the melting point lay within 152.1 to 162.5 °C.

Turning to `COc1ccc(-c2cc(C(=O)O)c(=O)n(CC=Cc3ccc(Cl)cc3)n2)cc1Cl` [Example 105, 4-carboxy-2-(4-chlorocinnamyl)-6-(3-chloro-4-methoxyphenyl)-2H-pyridazin-3-one], the melting point was 183 to 183.8 °C.

For the compound `COc1ccc(-c2cc(N)c(=O)n(CC=Cc3ccc(Cl)cc3)n2)cc1` [Example 111, 4-amino-2-(4-chlorocinnamyl)-6-(4-methoxyphenyl)-2H-pyridazin-3-one], the melting point was in the range of 142.7 to 143.2 °C.

As for `COc1ccc(-c2cc(NC(C)=O)c(=O)n(CC=Cc3ccc(Cl)cc3)n2)cc1` [Example 113, 4-acetylamino-2-(4-chlorocinnamyl)-6-(4-methoxyphenyl)-2H-pyridazin-3-one], the melting point fell in the range of 158.7 to 161.9 °C.

Take `CCC(=O)Nc1cc(-c2ccc(OC)cc2)nn(CC=Cc2ccc(Cl)cc2)c1=O` [Example 114, 2-(4-chlorocinnamyl)-6-(4-methoxy-phenyl)-4-propionylamino-2H-pyridazin-3-one]: the melting point is 147.7 to 148.6 °C.

Regarding `CNc1cc(-c2ccc(OC)cc2)nn(CC=Cc2ccc(Cl)cc2)c1=O` [Example 117, 2-(4-chlorocinnamyl)-6-(4-methoxyphenyl)-4-methylamino-2H-pyridazin-3-one], the melting point fell in the range of 148.4 to 149.2 °C.

`COc1ccc(-c2cc(NC(=O)OCCCCCc3ccccc3)c(=O)n(CC=Cc3ccc(Cl)cc3)n2)cc1` [Example 118, 2-(4-chlorocinnamyl)-6-(4-methoxyphenyl)-4-[N-(3-phenylpropyl)ethoxycarbonylamino]-2H-pyridazin-3-one] gave a melting point of 113.5 to 114.2 °C.

For `COc1ccc(-c2cc(N)c(=O)n(Cc3ccccc3)n2)cc1` [Example 121, 4-amino-2-benzyl-6-(4-methoxyphenyl)-2H-pyridazin-3-one], the melting point fell in the range of 115.1 to 115.6 °C.

`COc1ccc(-c2cc(NS(C)(=O)=O)c(=O)n(Cc3ccccc3)n2)cc1` [Example 122, 2-benzyl-4-methanesulfonylamino-6-(4-methoxyphenyl)-2H-pyridazin-3-one] showed a melting point of 195 to 195.5 °C.

In turn, `COc1ccc(-c2cc(NC(=O)NC(C)C)c(=O)n(Cc3ccccc3)n2)cc1` [Example 123, 2-benzyl-4-(3-isopropylureido)-6-(4-methoxyphenyl)-2H-pyridazin-3-one] registered a melting point of 200.2 to 201 °C.

As for `COc1ccc(-c2cc(N)c(=O)n(CC3CC3)n2)cc1` [Example 124, 4-amino-2-cyclopropylmethyl-6-(4-methoxyphenyl)-2H-pyridazin-3-one], the melting point was in the range of 110.8 to 111.3 °C.

As to `COc1ccc(-c2cc(NC(=O)NC(C)C)c(=O)n(CC3CC3)n2)cc1` [Example 125, 2-cyclopropylmethyl-4-(3-isopropylureido)-6-(4-methoxyphenyl)-2H-pyridazin-3-one], the melting point fell in the range of 195.8 to 197 °C.

Regarding `COc1ccc(-c2cc(NS(C)(=O)=O)c(=O)n(CC3CC3)n2)cc1` [Example 126, 2-cyclopropylmethyl-4-methanesulfonylamino-6-(4-methoxyphenyl)-2H-pyridazin-3-one], the melting point lay in the range of 203.3 to 203.9 °C.

Consider `NC(=O)c1cc(-c2ccc(F)c(Cl)c2)nn(CC=Cc2ccccc2)c1=O` [Example 127, 4-carbamoyl-6-(3-chloro-4-fluorophenyl)-2-cinnamyl-2H-pyridazin-3-one], for which the melting point is 211 to 212 °C.

Turning to `CNC(=S)c1cc(-c2ccc(OC)c(F)c2)nn(CC2CC2)c1=O` [Example 129, 2-cyclopropylmethyl-6-(3-fluoro-4-methoxyphenyl)-4-methylthiocarbamoyl-2H-pyridazin-3-one], the melting point is 178 to 178.5 °C.

Take `CNC(=S)c1cc(-c2ccc(OC)cc2)nn(CC(C)C)c1=O` [Example 130, 2-isobutyl-6-(4-methoxyphenyl)-4-methylthiocarbamoyl-2H-pyridazin-3-one]: the melting point lay within 116 to 116.6 °C.

Values taken from US6403586B1, “Pyridazine derivatives and drugs containing the same as the active ingredient” (Kowa Co., Ltd., priority 1998, dated 2002).
